According to ChEMBL document CHEMBL5291721, “A preclinical secondary pharmacology resource illuminates target-adverse drug reaction associations of marketed drugs” (Nat Commun, 2023):

Columns and labels:
Androgen receptor [1] = target: T1, Androgen receptor (Rattus norvegicus, UniProt P15207); format: functional
T1 sequence (P15207 whole entry): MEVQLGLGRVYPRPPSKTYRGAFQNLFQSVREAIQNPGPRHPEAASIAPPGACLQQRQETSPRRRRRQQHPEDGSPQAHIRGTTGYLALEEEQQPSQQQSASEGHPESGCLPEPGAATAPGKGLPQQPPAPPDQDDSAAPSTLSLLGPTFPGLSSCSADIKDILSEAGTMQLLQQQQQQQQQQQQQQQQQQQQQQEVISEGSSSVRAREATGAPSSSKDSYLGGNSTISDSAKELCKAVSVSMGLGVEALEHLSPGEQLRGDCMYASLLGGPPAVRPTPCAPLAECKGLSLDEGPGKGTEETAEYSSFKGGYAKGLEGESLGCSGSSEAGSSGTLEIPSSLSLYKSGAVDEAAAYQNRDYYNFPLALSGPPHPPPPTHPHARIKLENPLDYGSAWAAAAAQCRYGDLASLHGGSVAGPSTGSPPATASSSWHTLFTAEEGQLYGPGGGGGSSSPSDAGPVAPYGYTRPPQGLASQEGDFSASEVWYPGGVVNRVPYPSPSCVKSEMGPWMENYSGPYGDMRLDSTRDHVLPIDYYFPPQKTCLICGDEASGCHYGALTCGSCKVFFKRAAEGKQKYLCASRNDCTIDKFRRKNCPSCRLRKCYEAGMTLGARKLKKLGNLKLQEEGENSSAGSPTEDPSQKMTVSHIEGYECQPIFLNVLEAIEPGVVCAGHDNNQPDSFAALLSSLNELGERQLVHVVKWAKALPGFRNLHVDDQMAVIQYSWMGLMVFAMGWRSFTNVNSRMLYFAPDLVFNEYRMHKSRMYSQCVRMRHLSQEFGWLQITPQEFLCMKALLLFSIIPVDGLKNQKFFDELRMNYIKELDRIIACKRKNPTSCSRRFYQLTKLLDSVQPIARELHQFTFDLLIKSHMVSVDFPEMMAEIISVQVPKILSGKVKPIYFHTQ

Androgen receptor [2] = target: T1, Androgen receptor; format: functional; remark: listed apart in the source
[3] = target: Vascular endothelial growth factor receptor 2 (Homo sapiens, UniProt P35968); format: functional
Vascular endothelial growth factor receptor 2, sequence (P35968 whole entry): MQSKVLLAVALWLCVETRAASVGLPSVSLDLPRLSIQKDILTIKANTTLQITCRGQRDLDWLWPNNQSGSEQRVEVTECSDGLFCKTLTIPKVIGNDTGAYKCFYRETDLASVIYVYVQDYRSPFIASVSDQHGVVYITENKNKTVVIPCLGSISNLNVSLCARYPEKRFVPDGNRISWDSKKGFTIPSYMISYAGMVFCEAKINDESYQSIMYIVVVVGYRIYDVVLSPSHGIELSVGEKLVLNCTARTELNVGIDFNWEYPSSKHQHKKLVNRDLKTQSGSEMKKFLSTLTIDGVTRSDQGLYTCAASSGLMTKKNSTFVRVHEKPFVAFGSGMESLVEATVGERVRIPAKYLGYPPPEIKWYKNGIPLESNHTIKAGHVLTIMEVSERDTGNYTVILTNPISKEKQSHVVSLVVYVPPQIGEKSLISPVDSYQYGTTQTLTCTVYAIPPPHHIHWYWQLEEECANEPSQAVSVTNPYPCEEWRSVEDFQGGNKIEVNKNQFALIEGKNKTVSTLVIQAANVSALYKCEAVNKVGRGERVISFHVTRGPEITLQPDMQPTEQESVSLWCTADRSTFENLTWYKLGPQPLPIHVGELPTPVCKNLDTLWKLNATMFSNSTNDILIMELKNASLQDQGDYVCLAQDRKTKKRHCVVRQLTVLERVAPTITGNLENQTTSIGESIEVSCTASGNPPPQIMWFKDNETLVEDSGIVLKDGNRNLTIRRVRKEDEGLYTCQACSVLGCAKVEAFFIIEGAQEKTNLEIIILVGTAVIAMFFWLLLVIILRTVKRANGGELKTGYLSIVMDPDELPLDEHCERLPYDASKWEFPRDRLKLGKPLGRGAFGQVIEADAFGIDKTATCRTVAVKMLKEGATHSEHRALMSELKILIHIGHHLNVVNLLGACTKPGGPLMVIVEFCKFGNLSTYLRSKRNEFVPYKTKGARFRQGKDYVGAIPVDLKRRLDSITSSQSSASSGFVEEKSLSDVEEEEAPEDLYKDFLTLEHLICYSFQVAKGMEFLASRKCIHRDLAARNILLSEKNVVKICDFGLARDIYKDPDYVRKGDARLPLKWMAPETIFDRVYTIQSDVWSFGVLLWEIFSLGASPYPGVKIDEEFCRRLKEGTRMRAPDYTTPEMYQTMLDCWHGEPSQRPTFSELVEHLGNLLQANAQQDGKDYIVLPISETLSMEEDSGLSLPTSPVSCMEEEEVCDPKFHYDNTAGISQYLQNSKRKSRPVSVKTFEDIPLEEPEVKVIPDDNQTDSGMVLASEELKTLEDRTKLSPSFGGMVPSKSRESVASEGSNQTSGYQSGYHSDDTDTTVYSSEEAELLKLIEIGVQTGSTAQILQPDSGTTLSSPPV

Androgen receptor [4] = target: T2, Androgen receptor (Homo sapiens, UniProt P10275)
T2 sequence (P10275 whole entry): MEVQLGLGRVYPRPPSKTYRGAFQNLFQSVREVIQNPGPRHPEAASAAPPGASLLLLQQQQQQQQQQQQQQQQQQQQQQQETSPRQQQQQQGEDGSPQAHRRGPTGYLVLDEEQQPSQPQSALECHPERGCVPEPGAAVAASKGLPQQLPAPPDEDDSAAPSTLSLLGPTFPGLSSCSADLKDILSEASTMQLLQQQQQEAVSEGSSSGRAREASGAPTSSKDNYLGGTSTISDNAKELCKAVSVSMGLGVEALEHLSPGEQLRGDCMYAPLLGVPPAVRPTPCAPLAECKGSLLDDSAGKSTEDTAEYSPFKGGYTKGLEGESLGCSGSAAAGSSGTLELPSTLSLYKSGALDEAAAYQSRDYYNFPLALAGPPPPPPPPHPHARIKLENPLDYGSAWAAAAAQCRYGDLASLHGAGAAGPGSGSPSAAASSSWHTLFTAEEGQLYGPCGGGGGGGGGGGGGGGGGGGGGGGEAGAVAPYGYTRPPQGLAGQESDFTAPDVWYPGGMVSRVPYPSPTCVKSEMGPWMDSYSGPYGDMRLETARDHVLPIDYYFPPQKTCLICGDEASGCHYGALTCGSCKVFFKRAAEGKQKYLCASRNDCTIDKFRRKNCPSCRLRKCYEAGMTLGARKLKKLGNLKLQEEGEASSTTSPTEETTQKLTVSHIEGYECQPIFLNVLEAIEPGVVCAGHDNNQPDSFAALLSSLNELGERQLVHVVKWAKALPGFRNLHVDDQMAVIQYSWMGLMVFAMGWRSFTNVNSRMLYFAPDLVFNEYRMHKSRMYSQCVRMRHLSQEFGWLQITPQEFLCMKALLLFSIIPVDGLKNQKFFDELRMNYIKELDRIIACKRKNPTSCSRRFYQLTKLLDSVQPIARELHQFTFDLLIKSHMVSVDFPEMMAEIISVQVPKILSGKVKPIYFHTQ

Androgen receptor [5] = target: T1, Androgen receptor
Estrogen receptor = target: T3, Estrogen receptor (Homo sapiens, UniProt P03372); format: functional
T3 sequence (P03372 whole entry): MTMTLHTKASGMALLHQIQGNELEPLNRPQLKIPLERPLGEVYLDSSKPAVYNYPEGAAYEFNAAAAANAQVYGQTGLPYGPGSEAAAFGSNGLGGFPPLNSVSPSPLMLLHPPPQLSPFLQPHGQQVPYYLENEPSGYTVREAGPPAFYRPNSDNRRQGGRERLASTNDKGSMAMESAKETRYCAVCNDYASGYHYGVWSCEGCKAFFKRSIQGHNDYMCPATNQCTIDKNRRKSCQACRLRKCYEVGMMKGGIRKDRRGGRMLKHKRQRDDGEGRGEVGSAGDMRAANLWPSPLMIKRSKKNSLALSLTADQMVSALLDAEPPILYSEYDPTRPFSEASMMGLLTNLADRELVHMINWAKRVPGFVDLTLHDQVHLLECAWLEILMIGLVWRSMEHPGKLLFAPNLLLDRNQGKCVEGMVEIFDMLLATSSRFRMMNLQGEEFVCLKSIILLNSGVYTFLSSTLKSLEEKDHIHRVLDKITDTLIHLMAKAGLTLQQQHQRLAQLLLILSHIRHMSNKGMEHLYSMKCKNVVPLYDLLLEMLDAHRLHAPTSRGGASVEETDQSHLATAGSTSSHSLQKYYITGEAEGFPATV

[6] = target: Hydroxycarboxylic acid receptor 2 (Homo sapiens, UniProt Q8TDS4)
Hydroxycarboxylic acid receptor 2, sequence (Q8TDS4 whole entry): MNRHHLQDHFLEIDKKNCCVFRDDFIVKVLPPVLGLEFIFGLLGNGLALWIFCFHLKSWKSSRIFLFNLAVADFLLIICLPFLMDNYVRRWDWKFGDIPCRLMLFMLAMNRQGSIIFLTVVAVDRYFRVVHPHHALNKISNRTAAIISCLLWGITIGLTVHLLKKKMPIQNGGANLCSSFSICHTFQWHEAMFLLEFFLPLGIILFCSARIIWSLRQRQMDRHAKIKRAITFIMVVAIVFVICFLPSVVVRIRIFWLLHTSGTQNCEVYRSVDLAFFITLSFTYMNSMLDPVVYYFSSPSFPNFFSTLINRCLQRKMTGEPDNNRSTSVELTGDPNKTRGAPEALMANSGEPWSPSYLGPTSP

[7] = target: 5-hydroxytryptamine receptor 2A (Homo sapiens, UniProt P28223)
5-hydroxytryptamine receptor 2A, sequence (P28223 whole entry): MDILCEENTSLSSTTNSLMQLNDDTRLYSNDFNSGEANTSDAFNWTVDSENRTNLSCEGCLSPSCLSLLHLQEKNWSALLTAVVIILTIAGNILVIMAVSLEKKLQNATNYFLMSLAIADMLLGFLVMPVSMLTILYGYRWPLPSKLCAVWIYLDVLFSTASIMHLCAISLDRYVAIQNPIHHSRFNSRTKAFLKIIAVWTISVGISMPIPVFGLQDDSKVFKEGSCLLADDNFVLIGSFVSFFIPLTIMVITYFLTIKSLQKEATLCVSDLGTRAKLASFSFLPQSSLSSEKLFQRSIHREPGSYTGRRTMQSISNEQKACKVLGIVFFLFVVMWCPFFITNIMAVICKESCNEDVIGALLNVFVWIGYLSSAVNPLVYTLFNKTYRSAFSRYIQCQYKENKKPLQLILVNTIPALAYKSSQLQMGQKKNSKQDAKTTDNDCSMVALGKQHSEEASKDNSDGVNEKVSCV

Adenosine receptor A1 = target: T4, Adenosine receptor A1 (Homo sapiens, UniProt P30542)
T4 sequence (P30542 whole entry): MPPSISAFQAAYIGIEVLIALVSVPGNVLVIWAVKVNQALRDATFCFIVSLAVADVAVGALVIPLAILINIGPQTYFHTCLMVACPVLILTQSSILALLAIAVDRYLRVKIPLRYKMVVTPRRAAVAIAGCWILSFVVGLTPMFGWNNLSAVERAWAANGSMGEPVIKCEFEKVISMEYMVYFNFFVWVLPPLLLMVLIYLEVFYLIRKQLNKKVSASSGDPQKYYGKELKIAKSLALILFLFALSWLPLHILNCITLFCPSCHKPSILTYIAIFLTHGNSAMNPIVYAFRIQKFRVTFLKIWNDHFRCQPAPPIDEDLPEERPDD
Further: assay procedure not described here.

COC(=O)N[C@H](C(=O)N1CCC[C@H]1c1nc(-c2ccc(-c3ccc(-c4c[nH]c([C@@H]5CCCN5C(=O)[C@@H](NC(=O)OC)C(C)C)n4)cc3)cc2)c[nH]1)C(C)C
AC50 (Androgen receptor [1]): > 30 µM
AC50 (Androgen receptor [2]): > 30 µM

Nc1nc(N)c2nc(-c3ccccc3)c(N)nc2n1
AC50 (Androgen receptor [1]): > 3 µM
AC50 [3]: > 30 µM
AC50 (Androgen receptor [4]): > 30 µM
AC50 (Androgen receptor [5]): > 30 µM
AC50 (Androgen receptor [2]): > 30 µM

CC(=O)c1ccc2c(c1)N(CCCN1CCN(CCO)CC1)c1ccccc1S2 [ACETOPHENAZINE]
AC50 (Estrogen receptor): 13 µM

Oc1ncnc2[nH]ncc12 [ALLOPURINOL]
AC50 [3]: > 30 µM
AC50 [6]: > 10 µM

CC(N)Cc1ccccc1 (stereo unspecified) [AMPHETAMINE]
AC50 [7]: > 10 µM
AC50 (Androgen receptor [5]): > 30 µM
AC50 (Androgen receptor [2]): > 30 µM
AC50 (Estrogen receptor): > 30 µM

CN1CCCC(n2nc(Cc3ccc(Cl)cc3)c3ccccc3c2=O)CC1 (stereo unspecified) [AZELASTINE]
AC50 (Estrogen receptor): > 30 µM

O=C1c2c(O)c(=O)ccn2N([C@@H]2c3ccccc3SCc3c2ccc(F)c3F)[C@@H]2COCCN12 [BALOXAVIR]
AC50 (Androgen receptor [4]): > 30 µM

C(=N\NC1=NCCN1)/c1c2ccccc2c(/C=N/NC2=NCCN2)c2ccccc12 [BISANTRENE]
AC50 (Androgen receptor [4]): > 30 µM

CC(C)NCC(O)COc1ccc(COCCOC(C)C)cc1 (stereo unspecified) [BISOPROLOL]
AC50 [7]: > 10 µM
AC50 (Androgen receptor [5]): > 30 µM

COc1cc(Nc2c(C#N)cnc3cc(OCCCN4CCN(C)CC4)c(OC)cc23)c(Cl)cc1Cl [BOSUTINIB]
AC50 (Adenosine receptor A1): > 30 µM

CCO/N=C(\C(=O)N[C@@H]1C(=O)N2C(C(=O)[O-])=C(Sc3nc(-c4cc[n+](C)cc4)cs3)CS[C@H]12)c1nsc(N)n1 [CEFTAROLINE]
AC50 (Androgen receptor [4]): > 30 µM

CCC[C@@H]1C[C@@H](C(=O)N[C@@H]([C@H]2O[C@H](SC)[C@H](O)[C@@H](O)[C@H]2O)[C@H](C)Cl)N(C)C1 [CLINDAMYCIN]
AC50 [6]: > 10 µM

CC(=O)OCC(=O)[C@@]1(O)CC[C@H]2[C@@H]3CCC4=CC(=O)CC[C@]4(C)[C@H]3C(=O)C[C@@]21C [CORTISONE ACETATE]
AC50 (Adenosine receptor A1): > 30 µM

CN(CCOc1ccc(NS(C)(=O)=O)cc1)CCc1ccc(NS(C)(=O)=O)cc1 [DOFETILIDE]
AC50 [7]: > 10 µM
AC50 [6]: > 10 µM

COc1cc2c(cc1OC)C(=O)C(CC1CCN(Cc3ccccc3)CC1)C2 (stereo unspecified) [DONEPEZIL]
AC50 (Androgen receptor [4]): > 30 µM
AC50 [7]: > 10 µM
AC50 (Androgen receptor [5]): > 30 µM

CCC(=O)O[C@H]1[C@H](O[C@@H]2[C@@H](C)[C@H](O[C@H]3C[C@@](C)(OC)[C@@H](O)[C@H](C)O3)[C@@H](C)C(=O)O[C@H](CC)[C@@](C)(O)[C@H](O)[C@@H](C)C(=O)[C@H](C)C[C@@]2(C)O)O[C@H](C)C[C@@H]1N(C)C [ERYTHROMYCIN PROPIONATE]
AC50 (Adenosine receptor A1): > 30 µM

C#C[C@]1(O)CC[C@H]2[C@@H]3CCc4cc(O)ccc4[C@H]3CC[C@@]21C [ETHINYL ESTRADIOL]
AC50 [6]: > 10 µM
AC50 (Adenosine receptor A1): > 30 µM

CCC(=O)c1c(O)cc(O)cc1O [FLOPROPIONE]
AC50 (Androgen receptor [4]): > 30 µM

CC(C)C(=O)Nc1ccc([N+](=O)[O-])c(C(F)(F)F)c1 [FLUTAMIDE]
AC50 [3]: > 30 µM

C[C@@H]1O[C@@H]1P(=O)(O)O [FOSFOMYCIN]
AC50 (Androgen receptor [5]): > 30 µM

COc1ccc2c(c1)C(=O)N(CCc1ccc(S(=O)(=O)NC(=O)NC3CCCCC3)cc1)C(=O)C2(C)C [GLIQUIDONE]
AC50 (Androgen receptor [1]): > 30 µM
AC50 (Androgen receptor [2]): > 30 µM

CC(C)Cc1ccc(CC(=O)O)cc1 [IBUFENAC]
AC50 [3]: > 30 µM

CC(C)NNC(=O)c1ccncc1 [IPRONIAZID]
AC50 [3]: > 30 µM
AC50 (Androgen receptor [2]): > 30 µM
AC50 (Estrogen receptor): > 30 µM

OC[C@@H](O)[C@@H](O)[C@H](O)[C@H](O)CO [MANNITOL]
AC50 (Adenosine receptor A1): > 30 µM

C[C@H]1C[C@@H]2[C@H]([C@@H](O)C[C@@]3(C)[C@H]2CC[C@]3(O)C(=O)CO)[C@@]2(C)C=CC(=O)C=C12 [METHYLPREDNISOLONE]
AC50 (Androgen receptor [5]): > 30 µM

CCN(CC)CCNC(=O)c1cc(Cl)c(N)cc1OC [METOCLOPRAMIDE]
AC50 [6]: > 10 µM

OCCN1CCN(CCCN2c3ccccc3C=Cc3ccccc32)CC1 [OPIPRAMOL]
AC50 (Adenosine receptor A1): > 30 µM

CC(C(=O)O)c1ccc(N2CC=CC2)c(Cl)c1 (stereo unspecified) [PIRPROFEN]
AC50 (Androgen receptor [4]): > 30 µM
AC50 [7]: > 10 µM
AC50 [6]: > 10 µM
AC50 (Androgen receptor [5]): > 30 µM

CC[C@H](C)C(=O)O[C@H]1C[C@H](O)C=C2C=C[C@H](C)[C@H](CC[C@@H](O)C[C@@H](O)CC(=O)O)[C@H]21 [PRAVASTATIN]
AC50 (Estrogen receptor): > 30 µM

NC(=O)c1cnccn1 [PYRAZINAMIDE]
AC50 [3]: > 30 µM

O=C(NC[C@H]1CN(c2ccc(N3CCOCC3=O)cc2)C(=O)O1)c1ccc(Cl)s1 [RIVAROXABAN]
AC50 (Adenosine receptor A1): > 30 µM

Cc1cc2c(cc1CC(=O)c1sccc1S(=O)(=O)Nc1onc(C)c1Cl)OCO2 [SITAXENTAN]
AC50 (Adenosine receptor A1): > 30 µM

CC(C)OC(=O)[C@H](C)N[P@](=O)(OC[C@H]1O[C@@H](n2ccc(=O)[nH]c2=O)[C@](C)(F)[C@@H]1O)Oc1ccccc1 [SOFOSBUVIR]
AC50 (Androgen receptor [4]): > 30 µM

Cc1ccc(O)c2ncccc12 [TILIQUINOL]
AC50 (Androgen receptor [4]): > 30 µM

CC(=O)OC[C@H]1O[C@@H](n2ccc(=O)[nH]c2=O)[C@H](OC(C)=O)[C@@H]1OC(C)=O [URIDINE TRIACETATE]
AC50 (Androgen receptor [4]): > 30 µM

CCCS(=O)(=O)Nc1ccc(F)c(C(=O)c2c[nH]c3ncc(-c4ccc(Cl)cc4)cc23)c1F [VEMURAFENIB]
AC50 (Androgen receptor [1]): > 30 µM
AC50 (Androgen receptor [2]): > 30 µM

OCc1cc([C@@H](O)CNCCCCCCOCCOCc2c(Cl)cccc2Cl)ccc1O [VILANTEROL]
AC50 (Androgen receptor [2]): > 30 µM
AC50 (Estrogen receptor): > 30 µM

CCOC(=O)N[C@@H]1CC[C@@H]2[C@@H](C1)C[C@H]1C(=O)O[C@H](C)[C@H]1[C@H]2/C=C/c1ccc(-c2cccc(F)c2)cn1 [VORAPAXAR]
AC50 (Androgen receptor [4]): > 30 µM

O=C(CCCCCCC(=O)Nc1ccccc1)NO [VORINOSTAT]
AC50 [7]: > 10 µM
